Test results published in ChEMBL document CHEMBL5523733, “Small Molecule Targeting PPM1A Activates Autophagy for Mycobacterium tuberculosis Host-Directed Therapy” (J Med Chem, 2024).
Active and inactive are the calls of the source. The calls are words filed in the database; no cut-off is given here.

Legend:
THP-1 [1] = test: Cytotoxicity against human THP-1 monocytes assessed as cell viability at 0.1 to 10 uM incubated for 24 hrs by flow cytometry; format: toxicity, cell-based; details: thp-1, 24 h, dose 0.1-10 µM
Protein phosphatase 1A [2] = target: T1, Protein phosphatase 1A (Homo sapiens, UniProt P35813); test: Inhibition of PPM1A (unknown origin)
T1 sequence (P35813 whole entry): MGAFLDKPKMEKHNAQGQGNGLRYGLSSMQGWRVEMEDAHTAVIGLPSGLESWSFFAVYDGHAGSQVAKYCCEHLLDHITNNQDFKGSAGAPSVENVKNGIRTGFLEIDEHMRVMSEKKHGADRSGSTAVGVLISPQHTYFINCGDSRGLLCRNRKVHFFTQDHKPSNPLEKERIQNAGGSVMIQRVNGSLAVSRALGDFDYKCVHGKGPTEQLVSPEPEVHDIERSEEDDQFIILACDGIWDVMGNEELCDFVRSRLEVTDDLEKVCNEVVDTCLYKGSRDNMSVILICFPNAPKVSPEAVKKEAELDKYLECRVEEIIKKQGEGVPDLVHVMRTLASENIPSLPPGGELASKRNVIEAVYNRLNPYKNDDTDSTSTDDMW

dsDNA = test: Binding affinity to dsDNA (unknown origin) assessed as reduction in fluorescence intensity at 5 uM; format: nucleic-acid assay
[3] = Cytotoxicity against human THP-1 cells by resazurin dye based assay; format: toxicity, cell-based
THP-1 [4] = test: Induction of DNA damage in human THP-1 macrophages assessed as increase in gamma-H2AX at 0.1 to 10 uM incubated for 24 hrs by Western blot analysis; format: toxicity, cell-based; details: thp-1, 24 h, dose 0.1-10 µM
[5] = Cytotoxicity against human Caco-2 cells by resazurin dye based assay; format: toxicity, cell-based
THP-1 [6] = test: Cytotoxicity against human THP-1 macrophages assessed as cell viability at 0.1 to 10 uM incubated for 24 hrs by flow cytometry; format: toxicity, cell-based; details: thp-1, 24 h, dose 0.1-10 µM
THP-1 [7] = test: Induction of DNA damage in human THP-1 monocytes assessed as increase in gamma-H2AX at 0.1 to 10 uM incubated for 24 hrs by Western blot analysis; format: toxicity, cell-based; details: thp-1, 24 h, dose 0.1-10 µM
Protein phosphatase 1A [8] = target: T1, Protein phosphatase 1A; test: Inhibition of recombinant human PPM1A using pNPP as substrate preincubated for 15 mins followed by substrate addition measured after 20 mins by absorbance based assay

SMILES	IC50 (Protein phosphatase 1A [8])	further results
COc1ccc2c(c1)c[n+](CCO)c1ccc(F)cc21.[Br-]	1.19 µM	Activity (THP-1 [1]): Non-Toxic; IC50 (Protein phosphatase 1A [2]): 1.19 µM; Ki (Protein phosphatase 1A [2]): 0.84 µM; Activity (dsDNA): inactive; CC50 [3]: 94.8 µM; Activity (THP-1 [4]): Non-Toxic; CC50 [5]: > 200 µM; Activity (THP-1 [6]): Non-Toxic; Activity (THP-1 [7]): Non-Toxic
COc1ccc2c(c1)c[n+](CCO)c1ccc(Cl)cc21	> 20 µM	
COc1ccc2c(c1)c[n+](CCO)c1cc(F)ccc21	> 20 µM	
OCC[n+]1cc2cc(F)ccc2c2cc(F)ccc21	> 20 µM	
CC(C)Oc1ccc2c(c1)c[n+](CCO)c1ccc(F)cc21	3.72 µM	
COc1ccc2c(c1)c[n+](CCO)c1ccccc21	> 20 µM	
COc1ccc2c(c1)c[n+](CCCO)c1ccc(F)cc21	> 10 µM	
COc1cc2c[n+](CCO)c3ccc(F)cc3c2cc1C1CC1	> 20 µM	
COc1cc2c[n+](CCO)c3ccc(F)cc3c2cc1C#Cc1ccccc1	> 10 µM	
COc1cc2c[n+](CCO)c3ccc(F)cc3c2cc1-c1cc(C)cc(C)c1	> 20 µM	
CC(C)COc1ccc2c(c1)c[n+](CCO)c1ccc(F)cc21	> 20 µM	
COc1ccc2c(c1)c[n+](CCO)c1ccc(C)cc21	> 20 µM	
OCC[n+]1cccc2cc(F)ccc21	> 20 µM	
COc1ccc2c(c1)c[n+](CCO)c1ccc(OC)cc21	2.6 µM	CC50 [3]: 47.2 µM; CC50 [5]: > 200 µM
CCOc1ccc2c(c1)c1ccc(OC)cc1c[n+]2CCO	> 20 µM	
COc1ccc(-c2cc3c(cc2OC)c[n+](CCO)c2ccc(F)cc32)cc1	0.29 µM	CC50 [3]: 37.2 µM; CC50 [5]: 74.6 µM
OCC[n+]1cc2ccccc2c2cc(F)ccc21	> 20 µM	
COC(=O)c1cccc(-c2cc3c(cc2OC)c[n+](CCO)c2ccc(F)cc32)c1	> 20 µM	
COc1ccc2cc[n+](CCO)cc2c1	> 20 µM	
OCC[n+]1cc2cc3c(cc2c2cc(F)ccc21)OCO3	> 20 µM	
